N#Cc1ccncc1
solubility (mole fraction)
Details | in acetone | in ethanol | in ethyl acetate | in isobutanol | in methanol | in n-butanol | in n-propanol | in tetrachloromethane
268.15 K | 0.117 | 0.0065 | 0.106 | 0.0133 | 0.0245 | 0.0141 | 0.0246 | 0.0129
273.15 K | 0.134 | 0.016 | 0.121 | 0.0176 | 0.0302 | 0.0149 | 0.0271 | 0.0194
278.15 K | 0.155 | 0.0179 | 0.142 | 0.0229 | 0.0361 | 0.0216 | 0.0396 | 0.0292
288.15 K | 0.213 | 0.0367 | 0.203 | 0.0469 | 0.062 | 0.0471 | 0.07 | 0.0396
298.15 K | 0.275 | 0.0706 | 0.261 | 0.108 | 0.0954 | 0.0898 | 0.129 | 0.0839
308.15 K | 0.356 | 0.136 | 0.343 | 0.172 | 0.173 | 0.151 | 0.19 | 0.151
318.15 K | 0.46 | 0.273 | 0.437 | 0.304 | 0.304 | 0.284 | 0.298 | 0.287

N#Cc1cccnc1
solubility (mole fraction)
Details | in acetone | in ethanol | in ethyl acetate | in isobutanol | in methanol | in n-butanol | in n-propanol | in tetrachloromethane
268.15 K | 0.247 | 0.0429 | 0.209 | 0.028 | 0.0877 | 0.025 | 0.0434 | 0.0098
273.15 K | 0.29 | 0.0593 | 0.247 | 0.0396 | 0.111 | 0.0393 | 0.0658 | 0.0152
278.15 K | 0.329 | 0.0903 | 0.282 | 0.0702 | 0.153 | 0.0645 | 0.0976 | 0.024
288.15 K | 0.438 | 0.201 | 0.375 | 0.17 | 0.267 | 0.164 | 0.214 | 0.095
298.15 K | 0.541 | 0.339 | 0.478 | 0.3 | 0.404 | 0.275 | 0.348 | 0.239
308.15 K | 0.664 | 0.491 | 0.63 | 0.435 | 0.541 | 0.427 | 0.5 | 0.393
318.15 K | 0.833 | 0.627 | 0.803 | 0.6 | 0.726 | 0.577 | 0.643 | 0.568

From BigSolDB 2.1
